According to publication PMC10258794, “To Fold or Not to Fold: Diastereomeric Optimization of an α-Helical Antimicrobial Peptide” (Journal of Medicinal Chemistry, 2023):
In brackets after ≈: the same amount, converted by molar mass. Like-named read-outs stand apart in the source and are kept apart here. Non-standard residues stand in square brackets, D forms with d. Residues, ends and D or L forms follow the SMILES beside them.

Experiments:
human red blood cells = experiment: Hemolysis assay (MHC)
Description: To determine the MHC stock solutions, 8 mg/mL peptide in PBS (pH 7.4) was prepared, and 50 μL was diluted serially by l/2 in 50 μL of PBS (pH 7.4) in a 96-well plate (Costar or Nunc, polystyrene, untreated). […] Plasma was discarded, and the pellet was re-suspended in a 15 mL Falcon tube in 5 mL of PBS. The washing was repeated three times, and the remaining pellet was re-suspended in 10 mL of PBS. The hRBC suspension (50 μL) was added to each well, and the plate was incubated at room temperature for 4 h. MHC end points were determined by visual determination of the wells after the incubation period. Controls on each plate included a blank medium control (50 μL PBS + 50 μL of hRBCs suspension) and a hemolytic activity control (mQ-deionized water 50 μL + 50 μL hRBC suspension).

[1] = EYPG vesicle leakage assay; format: biochemical; details: 10 μg/mL of compound; 10 mM TRIS, 107 mM NaCl, pH 7.4
Description: 5(6)-carboxyfluorescein (CF) was purchased from Sigma. EYPC, EYPG, and a Mini-Extruder were purchased from Avanti Polar Lipids. Egg PC or Egg PG thin lipid layers were prepared by evaporating a solution of 100 mg of EYPC or EYPG in 4 mL of MeOH/CHCl3 (1:1) on a rotary evaporator at room temperature and then dried in vacuo overnight. […] Extravesicular components were removed by gel filtration (Sephadex G-50) with 10 mM TRIS, 107 mM NaCl, pH 7.4 buffer. Final conditions: ∼2.5 mM PC or PG; inside: 50 mM CF, 10 mM TRIS, 10 mM NaCl, pH 7.4 buffer; outside: 10 mM TRIS, 107 mM NaCl, pH 7.4. […] The CF efflux was monitored at λem 517 nm (λex 492 nm) as a function of time after addition of the desired volume of peptide from 2 mg/mL stock in mQ water at t = 45 s, 10 and 50 μg/mL were monitored for both EYPC and EYPG. […] Fluorescence intensities were then normalized to the maximal emission intensity using I(t) = (It – I0)/(I∞ – I0) where I0 = It at peptide addition, I∞ = It at saturation of lysis.

[2] = EYPC vesicle leakage assay; format: biochemical; details: 10 μg/mL of compound; 10 mM TRIS, 107 mM NaCl, pH 7.4
Outline: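 Egg PC or egg PG vesicles (~2.5 mM lipid) were loaded with 50 mM CF in 10 mM TRIS pH 7.4, with 10 mM TRIS/107 mM NaCl outside. Peptide at 10 or 50 μg/mL was added at 45 s, and CF efflux was followed at λex 492/λem 517 nm, normalized to complete lysis.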

[3] = CD spectroscopy, α-helix content; format: physicochemical; details: 5 mM DPC in 7 mM PB buffer pH 7.4, Dichroweb Contin LL set 4
Description: CD experiments were measured on a Jasco J-715 spectropolarimeter. All the experiments were performed using Hellma Suprasil 110-QS 0.1 cm cuvettes. For each peptide, the measurements were performed in phosphate buffer (PB, pH = 7.4, 7 mM), 10% TFE, 20% TFE, 5 mM DPC. The buffer was degassed for 10 min under high vacuum before each set of experiments. The concentration of the peptides was 0.100 mg/mL, and each sample was measured in one accumulation. The scan rate was 20 nm/min, pitch was 0.5 nm, response was 16 s, and bandwidth was 1.0 nm. The nitrogen flow was kept >8 L/min. After each measurement, the cuvettes were washed successively with milli-Q H2O and PB (pH 7.4). The baseline was recorded under the same conditions and subtracted manually. Primary CD spectra were analyzed using DichroWeb[58] and Contin-LL method (set 4).[74]

A. baumannii ATCC19606 = tested on: A. baumannii ATCC19606
Outline: (§1)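 Compounds were 2-fold serially diluted from a 2 mg/mL stock and plates were incubated statically for 16–20 h at 37 °C. MIC is the lowest concentration preventing visible growth, read after MTT staining.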

E. coli W3110 = tested on: E. coli W3110
Outline: as §1

K. pneumoniae NCTC418 = tested on: K. pneumoniae NCTC418
Outline: as §1

P. aeruginosa PAO1 = tested on: P. aeruginosa PAO1
Outline: as §1

S. aureus COL MRSA = details: for MIC S. aureus COL MRSA: MH broth pH 7.4, 16–20 h, 37 °C
Outline: as §1

[4] = tested on: Pseudomonas aeruginosa, Klebsiella pneumoniae, Acinetobacter baumannii, Escherichia coli, and methicillin-resistant Staphylococcus aureus; details: summary of Table 1
Outline: as §1

Burkolderia cenocepacia = experiment: microbe, parasite or virus in culture; details: MDR strain; MH broth pH 7.4, 16–20 h, 37 °C
Enterobacter cloacae = experiment: microbe, parasite or virus in culture; details: pH 7.4
Outline: as §1

P. aeruginosa PA14 = experiment: microbe, parasite or virus in culture
Outline: as §1

P. aeruginosa ZEM-1A = experiment: microbe, parasite or virus in culture; details: pH 7.4
Outline: as §1

PA14 2P4 (pmrB) = experiment: microbe, parasite or virus in culture; details: supplementary CSV
Outline: as §1

PA14 4.13 (phoQ) = experiment: microbe, parasite or virus in culture; details: supplementary CSV
Outline: as §1

PA14 4.18 (pmrB) = experiment: microbe, parasite or virus in culture; details: supplementary CSV
Outline: as §1

P. aeruginosa ZEM9A = experiment: microbe, parasite or virus in culture; format: cell-based, Pseudomonas aeruginosa; details: pH 7.4
Outline: as §1

K. pneumoniae Oxa-48 = experiment: MIC broth microdilution, K. pneumoniae Oxa-48; format: cell-based, Klebsiella pneumoniae; details: MDR strain; MH broth pH 7.4, 16–20 h, 37 °C
Outline: as §1

[5] = tested on: Stenotrophomonas maltophilia; experiment: microbe, parasite or virus in culture; format: cell-based; details: pH 7.4
Outline: as §1

Staphylococcus epidermis = experiment: MIC broth microdilution, Staphylococcus epidermis; format: cell-based; details: pH 7.4
Outline: as §1

HEK293 cells = experiment: Alamar blue cytotoxicity, HEK293; format: cell-based, human; details: 24 h, mean ± SD, n = 3, read-out: Toxicity on HEK293 cells
Description: The A549 human lung adenocarcinoma cells are derived from a patient and were kindly given to us by Dr. Georgia Konstatinidou (Pharmacology Institute, Bern University). HEK293T cells were obtained from ATCC (CRL-11268). A549 and HEK293 were cultured in an incubator at 37 °C with 5% CO2 in RPMI-1640 (Gibco) and DMEM (Gibco) containing 10% fetal bovine serum (Thermo Fisher), 100 I.U./mL penicillin, and 100 μg/mL streptomycin (Gibco).
The viability of the cells was assessed with an AlamarBlue assay (ThermoFisher). Cells were seeded into 96-well plates, 4000 cells/well (HEK293) and 8000 cells/well (A549), the day before the experiment. Cells were then treated with the increasing concentration of the compound and incubated for 24 h at 37 °C in the presence of 5% CO2. The next day, the medium was removed and replaced by a 10% AlamarBlue solution in full growth medium (DMEM or RPMI-1640). The cells were incubated for 3–5 h at 37 °C with 5% CO2 in a humidified atmosphere. The fluorescence was then measured on a Tecan Infinite M1000 Pro plate reader at λex 560 nm and λem 590 nm. The value was normalized according to the untreated cells.

[6] = MH broth pH 7.4, 16–20 h, 37 °C
[7] = supplementary CSV, ranges of Table 1 given as one number

Row | Compound | MHC (human red blood cells) | MHC (human red blood cells; pH 7.4) | EYPG vesicle leakage (%) [1] | EYPC vesicle leakage (%) [2] | α-helix content (%) [3] | MIC E. coli W3110 (E. coli W3110; [6]) | MIC K. pneumoniae NCTC418 (K. pneumoniae NCTC418; [6]) | MIC K. pneumoniae NCTC418 (K. pneumoniae NCTC418; NCTC418) | MIC P. aeruginosa PAO1 (P. aeruginosa PAO1; [6]) | MIC S. aureus COL MRSA (S. aureus COL MRSA) | MIC A. baumannii ATCC19606 (A. baumannii ATCC19606; [6]) | MIC, span over the five bacterial strains [4] | MIC K. pneumoniae NCTC418 (K. pneumoniae NCTC418; [7]) | MIC P. aeruginosa PAO1 (P. aeruginosa PAO1; [7]) | MIC S. aureus COL (S. aureus COL MRSA; [7]) | further results
1 | H-KKIIKIIKIII-NH2 [HP34] | 63 µg/mL | 62.5 µg/mL | 95% | 10% | 68% | 32 µg/mL | >64 µg/mL | >64 µg/mL | >64 µg/mL | >64 µg/mL |  |  |  |  |  | MIC A. baumannii ATCC19606 (A. baumannii ATCC19606; ATCC19606): 12 µg/mL; MIC A. baumannii ATCC19606 (A. baumannii ATCC19606; ATCC19606, pH 7.4): 8 to 16 µg/mL
2 | H-KKLLKLLKLLLKKLLKLLKLLL-NH2 [2ln65] | < 15.6 µg/mL | <15.6 µg/mL | 73% | 40% | 91% | >64 µg/mL | >64 µg/mL | >64 µg/mL | >64 µg/mL | >64 µg/mL | >64 µg/mL | entirely inactive |  |  |  | 
3 | CC(C)C[C@H](NC(=O)[C@H](CC(C)C)NC(=O)[C@H](CC(C)C)NC(=O)[C@@H](CCCNC(=N)N)NC(=O)[C@H](CC(C)C)NC(=O)[C@H](CC(C)C)NC(=O)[C@@H](CCCNC(=N)N)NC(=O)[C@H](CC(C)C)NC(=O)[C@H](CC(C)C)NC(=O)[C@@H](CCCNC(=N)N)NC(=O)[C@H](N)CCCNC(=N)N)C(N)=O [HP33, rrLLrLLrLLL] (H-[dR][dR]LL[dR]LL[dR]LLL-NH2) |  |  | 85% | 56% | 63% | 4 to 8 µg/mL | 4 to 8 µg/mL |  | 4 to 8 µg/mL | 2 to 4 µg/mL | 4 µg/mL (≈ 2.79 µM) |  | 6 µg/mL (≈ 4.18 µM) | 6 µg/mL (≈ 4.18 µM) | 3 µg/mL (≈ 2.09 µM) | MHC (human red blood cells; human red blood cells in PBS pH 7.4, 4 h, room temperature): 125 µg/mL; MHC (human red blood cells; supplementary CSV, human red blood cells): 125 µg/mL; MIC E. coli W3110 (E. coli W3110; [7]): 6 µg/mL (≈ 4.18 µM)
4 | CC(C)C[C@H](NC(=O)[C@H](CC(C)C)NC(=O)[C@H](CC(C)C)NC(=O)[C@H](CCCCN)NC(=O)[C@@H](CC(C)C)NC(=O)[C@H](CC(C)C)NC(=O)[C@H](CCCCN)NC(=O)[C@@H](CC(C)C)NC(=O)[C@@H](CC(C)C)NC(=O)[C@@H](CCCCN)NC(=O)[C@@H](N)CCCCN)C(N)=O [HP11, KkllKLlKLLL] |  |  |  |  |  | 2 µg/mL (≈ 1.51 µM) | 4 to 8 µg/mL |  | 2 to 4 µg/mL | 2 µg/mL (≈ 1.51 µM) | 2 µg/mL (≈ 1.51 µM) | 2 to 8 µg/mL | 6 µg/mL (≈ 4.54 µM) | 3 µg/mL (≈ 2.27 µM) | 2 µg/mL (≈ 1.51 µM) | MIC Burkolderia cenocepacia (Burkolderia cenocepacia): >64 µg/mL; MIC Enterobacter cloacae (Enterobacter cloacae): 4 µg/mL (≈ 3.03 µM); MIC PA14 (P. aeruginosa PA14; [6]): 1 µg/mL (≈ 0.757 µM); MIC P. aeruginosa PA14 (P. aeruginosa PA14; supplementary CSV): 1 µg/mL (≈ 0.757 µM); MIC ZEM-1A (P. aeruginosa ZEM-1A): 2 µg/mL (≈ 1.51 µM); MIC P. aeruginosaPA14 2P4 (PA14 2P4 (pmrB)): 16 µg/mL (≈ 12.1 µM); MIC P. aeruginosa PA14 4.13 (PA14 4.13 (phoQ)): 2 µg/mL (≈ 1.51 µM); MIC P. aeruginosa PA14 4.18 (PA14 4.18 (pmrB)): 8 µg/mL (≈ 6.05 µM); MIC ZEM9A (P. aeruginosa ZEM9A): 8 µg/mL (≈ 6.05 µM); MIC K. pneumoniae Oxa-48 (K. pneumoniae Oxa-48): 4 µg/mL (≈ 3.03 µM); MIC Stenotrophomonas maltophilia [5]: 4 µg/mL (≈ 3.03 µM); MIC Staphylococcus epidermis (Staphylococcus epidermis): 4 µg/mL (≈ 3.03 µM); IC50 (HEK293 cells): 64.8 ± 4.3 µM; MIC A. baumannii ATCC19606 (A. baumannii ATCC19606; [7]): 2 µg/mL (≈ 1.51 µM); MIC S. aureus Newman (S. aureus Newman; [6]): 2 µg/mL (≈ 1.51 µM); MIC S. aureus Newmann (S. aureus Newman; supplementary CSV): 2 µg/mL (≈ 1.51 µM)
5 | CC[C@H](C)[C@H](NC(=O)[C@@H](NC(=O)[C@@H](NC(=O)[C@@H](CCCCN)NC(=O)[C@@H](NC(=O)[C@@H](NC(=O)[C@@H](CCCCN)NC(=O)[C@@H](NC(=O)[C@@H](NC(=O)[C@@H](CCCCN)NC(=O)[C@H](N)CCCCN)[C@@H](C)CC)[C@@H](C)CC)[C@@H](C)CC)[C@@H](C)CC)[C@@H](C)CC)[C@@H](C)CC)C(N)=O [HP35, kkIIkIIkIII] (H-[dK][dK]II[dK]II[dK]III-NH2) | 125 µg/mL | 125 µg/mL | 98% | 13% | 22% | 4 µg/mL (≈ 3.03 µM) | >64 µg/mL |  | 16 µg/mL (≈ 12.1 µM) | >64 µg/mL | 8 µg/mL (≈ 6.05 µM) |  |  |  |  | MIC S. aureus COL (S. aureus COL MRSA; COL): >64 µg/mL
